Assay results as given in patent US7682630B2, “Antitumor agent and process for producing the same” (priority 2003, dated 2010).

How the values were obtained:
[1] = Release of free drug from the dialysis bag; assay type: physicochemical; details: same dialysis setting
Protocol: It is of importance that large molecular weight polymeric drugs having apparent molecular size larger than 10.000, preferably more than 50 KDa such as SMA-anthracyclin micelles, to exert tumor seeking EPR-effect, and thereby ultimately releasing free drug. To verify the drug complexes of the present invention release free drug from the micelle or polymeric conjugate in vitro, 20 mg of SMA-doxorubicin conjugates or SMA-pirarubicin conjugates was dissolved in 5 ml H2O and placed in sealed dialysis bag (M. W cut off 1.000; Spectrapor, Spectrum Laboratories Inc. CA. USA.). The dialysis bag was submerged in 25 ml of H2O with adjusted pH either at 7.4 to resemble circulating blood or pH 5.5 for tumor tissue, using 0.01 M NaOH and 0.01 M HCl, and incubated at 37° C. for several days in the dark. […] The released pirarubicin or doxorubicin outside the dialysis bag was collected at pre-determined time and amount was quantified by absorbance at 480 nm.
When the outside solution was replaced by ethanol the release rate has increased tremendously indicating the disruption of the hydrophobic interaction in the complex between the anthracyclins and the styrene hydrophobic moiety of SMA. One can envisage this hydrophobic environment would be more close to the endosome after internalization of the polymeric micelle into cytoplasm of cancer cell by endocytosis. […]

[2] = Side effects / hematological toxicity in S-180 bearing mice; assay type: in vivo; details: 10 mg/kg iv
Protocol: S-180 bearing mice with tumors of about 5-7 mm in diameter were used for this study. Full blood analysis was performed weekly for 4 weeks before and after 1, 2 and 3 weeks of iv injections of either doxorubicin, pirarubicin or their SMA micelle complexes as described above. Blood biochemistry including, alanine aminotransferase (ALT), aspartate aminotransferase (AST), lactic dehydrogenase (LDH) and total creatine phosphokinase (CPK) were measured at 36 hr after i.v. administration of either free drugs or SMA-micelle complexes.
At the same time, the heart, spleen, liver and kidney tissues were stained with hematoxylin-eosin (H&E staining) for determination of cytological tissue toxicity.

| Structure (SMILES) | time for free drug to extravasate out of the dialysis tube [1] | Erythrocyte ([2]; 1 week) | Hemoglobin ([2]; 1 week) [g/dL] | Leucocyte ([2]; 1 week) | Survival Rate ([2]; 1 week) [%] | Thrombocyte ([2]; 1 week) | Erythrocyte ([2]; 2 week) | Hemoglobin ([2]; 2 week) [g/dL] | Leucocyte ([2]; 2 week) | Survival Rate ([2]; 2 week) [%] | Thrombocyte ([2]; 2 week) | Erythrocyte ([2]; 3 week) | Hemoglobin ([2]; 3 week) [g/dL] | Leucocyte ([2]; 3 week) | Survival Rate ([2]; 3 week) [%] | Thrombocyte ([2]; 3 week) |
| --- | --- | --- | --- | --- | --- | --- | --- | --- | --- | --- | --- | --- | --- | --- | --- | --- |
| COc1cccc2c1C(=O)c1c(O)c3c(c(O)c1C2=O)CC(O)(C(=O)CO)CC3OC1CC(N)C(OC2CCCCO2)C(C)O1 (centres unmarked) [Free pirarubicin, pirarubicin] | within a few hours | 490.6 ± 144 ×10,000/mm^3 | 11.1 ± 0.9 | 2533 ± 108 /mm^3 | 100 | 67.7 ± 0.9 ×1,000/mm^3 | 876 ×10,000/mm^3 | 12.1 | 5000 /mm^3 | 25 | 130 ×1,000/mm^3 | 916 ×10,000/mm^3 | 15.7 | 4500 /mm^3 | 25 | 143 ×1,000/mm^3 |
| COc1cccc2c1C(=O)c1c(O)c3c(c(O)c1C2=O)C[C@@](O)(C(=O)CO)C[C@@H]3O[C@H]1C[C@H](N)[C@H](O)[C@H](C)O1 [doxorubicin] | within a few hours |  |  |  |  |  |  |  |  |  |  |  |  |  |  |  |
